Legend:
[1] = molecular target: T1, p22phox–Rubicon interaction (Homo sapiens, UniProt P13498); assay: p22phox–Rubicon interaction, co-IP in 293T cells co-transfected with V5-p22phox and Flag-Rubicon; format: cell-based; conditions: inhibition of p22phox–Rubicon interaction, compounds 0.01-20 μM for 24 h (Supplemental Fig. 5a)
T1 construct: The plasmid encoding full-length of the p22phox (V5-p22phox) and Rubicon (Flag-Rubicon) were previously described; expressed in transfected cells; host or cells: HEK293T (293T) cells, transient co-transfection
T1 sequence (P13498 1-195): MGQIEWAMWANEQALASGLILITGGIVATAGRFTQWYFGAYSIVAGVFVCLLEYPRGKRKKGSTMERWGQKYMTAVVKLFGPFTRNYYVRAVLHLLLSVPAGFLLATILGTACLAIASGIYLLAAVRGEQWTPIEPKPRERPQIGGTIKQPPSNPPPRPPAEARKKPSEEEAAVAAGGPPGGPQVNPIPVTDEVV
Description: Immunoblot and immunoprecipitation assays were performed as described previously[18],[23]. For immunoprecipitation, cells were harvested and then lysed in NP-40 buffer supplemented with a complete protease inhibitor cocktail (Roche). After pre-clearing with protein A/G agarose beads (GE Healthcare Life Science) for 1 h at 4 °C, whole-cell lysates were used for immunoprecipitation with the indicated antibodies. Generally, 1–4 μg of commercial antibody was added to 1 ml of cell lysates and incubated at 4 °C for 8 to 12 h. After the addition of protein A/G agarose beads for 6 h, immunoprecipitants were extensively washed with lysis buffer and eluted with SDS loading buffer by boiling for 5 min.
For immunoblotting, polypeptides were resolved by SDS-polyacrylamide gel electrophoresis and transferred to a PVDF membrane (Bio-Rad). […] Antibody binding was visualized by chemiluminescence (ECL; Millipore) and detected by a Vilber chemiluminescence analyzer (Fusion SL 3; Vilber Lourmat).
(a) 293T cells were co-transfected with V5-p22phox and Flag-Rubicon. 12 h post transfection, cells were treated with compound 1 or 2 (0.01, 0.1, 1, 5, 10, 20 μM) for 24 h, and subjected to IP with αFlag, followed by IB with αV5. WCLs were used for IB with αFlag, αV5, or αActin. […]

human monocytes = assay: LPS-primed, ATP-activated human monocytes (co-IP, ELISA, immunoblot); format: cell-based
Description: The mouse macrophage cell line RAW264.7 (ATCC TIB-71; American Type Culture Collection) and HEK293T (ATCC-11268) cells were maintained in DMEM (Invitrogen) containing 10% FBS (Invitrogen), sodium pyruvate, nonessential amino acids, penicillin G (100 IU/ml), and streptomycin (100 μg/ml). Transient transfections were performed with Lipofectamine 3000 (Invitrogen), or calcium phosphate (Clontech), according to the manufacturer’s instructions. Raw264.7 stable cell lines were generated using a standard selection protocol with 2 μg/ml of puromycin. Mouse primary bone marrow derived-macrophages (BMDMs) were isolated from C57BL/6 mice and cultured in DMEM for 3–5 days in the presence of 25 ng/ml recombinant macrophage colony stimulating factor (R&D Systems, 416-ML, Minneapolis, MN, USA), as described previously. Human adherent monocytes were prepared from PBMCs donated by healthy subjects, as described previously. […]
Cell culture supernatants, mice sera and synovial fluid were analyzed for cytokine content using the BD OptEIA ELISA set (BD Pharmingen) for the detection of TNF-α, IL-6, IL-1β, and IL-18. […]
Figure 6 TIPTP is active for cells from healthy humans or patients with RA. […] (b) Culture supernatants were harvested and analyzed for cytokines by ELISA (left). […] (e) Culture supernatants were harvested and analyzed for cytokines by ELISA (left). […]

## C[C@@H](Oc1cccc(-n2cc3c(n2)CCCC3)c1)C(=O)Nc1nnc(C(F)(F)F)s1 [TIPTP, (R)-2-(3-(4,5,6,7-tetrahydro-2H-indazol-2-yl)phenoxy)-N-(5-(trifluoromethyl)-1,3,4-thiadiazol-2-yl)propanamide]
[1]
  IC50: 100 nM
Human monocytes; human blood-derived monocytes, LPS/ATP, dose-dependent (Fig. 6b)
  IL-1β and IL-18 cytokines, caspase-1 activation, IL-1β and IL-18 maturation: inhibited
Human monocytes; normal human monocytes, LPS/ATP, 0.01, 0.1, 1 μM, dose-dependent (Fig. 6a)
  p22phox–Rubicon interaction: inhibited

From publication PMC7067850, “Identification of highly potent and selective inhibitor, TIPTP, of the p22phox-Rubicon axis as a therapeutic agent for rheumatoid arthritis” (Scientific Reports, 2020)
